Measured values from ChEMBL document CHEMBL4052660, “The tobacco cembranoid (1S,2E,4S,7E,11E)-2,7,11-cembratriene-4,6-diol as a novel angiogenesis inhibitory lead for the control of breast malignancies” (Bioorg Med Chem, 2017).
Active and inactive are the calls of the source. No cut-off for these calls is given here.

Tests used:
[1] = biological target: Vascular endothelial growth factor receptor 2 (Homo sapiens) (UniProt P35968); test: Inhibition of VEGFR2 in human MDA-MB-231 cells assessed as downregulation of phosphorylated paxillin levels at 50 uM by Western blot analysis; type: cell-based
Chain of Vascular endothelial growth factor receptor 2 (Homo sapiens) (P35968 whole entry): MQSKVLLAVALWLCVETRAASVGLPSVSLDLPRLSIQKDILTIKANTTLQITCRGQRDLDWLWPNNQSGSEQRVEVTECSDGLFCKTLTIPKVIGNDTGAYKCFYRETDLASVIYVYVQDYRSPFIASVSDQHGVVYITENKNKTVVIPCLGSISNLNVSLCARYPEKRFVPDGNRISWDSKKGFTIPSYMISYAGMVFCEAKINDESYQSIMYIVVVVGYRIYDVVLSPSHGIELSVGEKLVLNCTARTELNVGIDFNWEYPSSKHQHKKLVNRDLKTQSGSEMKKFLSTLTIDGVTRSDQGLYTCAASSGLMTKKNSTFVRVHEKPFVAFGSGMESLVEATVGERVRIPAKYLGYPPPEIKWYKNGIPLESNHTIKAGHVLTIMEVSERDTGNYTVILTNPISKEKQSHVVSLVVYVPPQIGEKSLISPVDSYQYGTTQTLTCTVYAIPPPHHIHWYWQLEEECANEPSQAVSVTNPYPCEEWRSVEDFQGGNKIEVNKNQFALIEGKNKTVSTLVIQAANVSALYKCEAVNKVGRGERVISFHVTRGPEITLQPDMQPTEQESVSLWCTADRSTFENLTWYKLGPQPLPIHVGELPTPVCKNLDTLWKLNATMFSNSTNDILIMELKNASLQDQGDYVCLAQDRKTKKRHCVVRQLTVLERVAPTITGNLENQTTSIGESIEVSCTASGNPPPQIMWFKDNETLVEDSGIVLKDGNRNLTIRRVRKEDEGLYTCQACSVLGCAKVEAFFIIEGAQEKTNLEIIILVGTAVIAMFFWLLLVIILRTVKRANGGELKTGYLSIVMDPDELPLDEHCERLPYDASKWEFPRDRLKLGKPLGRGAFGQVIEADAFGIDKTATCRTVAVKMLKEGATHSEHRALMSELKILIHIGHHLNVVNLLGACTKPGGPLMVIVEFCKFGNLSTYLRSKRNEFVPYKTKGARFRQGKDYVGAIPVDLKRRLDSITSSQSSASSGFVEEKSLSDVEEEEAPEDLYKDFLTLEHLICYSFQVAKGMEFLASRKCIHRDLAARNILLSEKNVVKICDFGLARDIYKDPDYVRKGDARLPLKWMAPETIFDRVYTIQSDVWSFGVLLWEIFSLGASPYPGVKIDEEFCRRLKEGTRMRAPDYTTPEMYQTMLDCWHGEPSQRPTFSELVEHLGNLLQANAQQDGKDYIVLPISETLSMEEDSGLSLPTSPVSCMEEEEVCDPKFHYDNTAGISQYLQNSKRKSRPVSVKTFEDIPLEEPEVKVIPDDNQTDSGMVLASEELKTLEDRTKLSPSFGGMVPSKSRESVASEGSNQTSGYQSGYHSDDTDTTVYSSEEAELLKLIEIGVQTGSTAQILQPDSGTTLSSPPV

Serum [2] = test: Drug uptake in athymic nude mouse serum at 40 mg/kg, ip after 2 hrs by ES-MS analysis; type: ADME, organism-based; settings: in vivo
[3] = biological target: Vascular endothelial growth factor receptor 2 (Homo sapiens) (UniProt P35968); test: Inhibition of VEGFR2 in human MDA-MB-231 cells assessed as downregulation of phosphorylated paxillin levels at 20 uM by Western blot analysis; type: cell-based
[4] = biological target: Vascular endothelial growth factor receptor 2 (Homo sapiens) (UniProt P35968); test: Inhibition of VEGFR2 phosphorylation in human MDA-MB-231 cells at 20 uM by Western blot analysis; type: cell-based
[5] = biological target: Vascular endothelial growth factor receptor 2 (Homo sapiens) (UniProt P35968); test: Inhibition of VEGFR2 in human BT474 cells assessed as reduction in PI3K phosphorylation at 20 to 50 uM by Western blot analysis; type: cell-based
[6] = biological target: Vascular endothelial growth factor receptor 2 (Homo sapiens) (UniProt P35968); test: Inhibition of VEGFR2 in human MDA-MB-231 cells assessed as reduction in Akt phosphorylation at 20 to 50 uM by Western blot analysis; type: cell-based
[7] = biological target: Vascular endothelial growth factor receptor 2 (Homo sapiens) (UniProt P35968); test: Inhibition of VEGFR2 phosphorylation in human BT474 cells at 50 uM by Western blot analysis; type: cell-based
[8] = biological target: Vascular endothelial growth factor receptor 2 (Homo sapiens) (UniProt P35968); test: Inhibition of VEGFR2 phosphorylation in human BT474 cells at 20 uM by Western blot analysis; type: cell-based
[9] = biological target: Vascular endothelial growth factor receptor 2 (Homo sapiens) (UniProt P35968); test: Inhibition of VEGFR2 in human MDA-MB-231 cells assessed as downregulation of phosphorylated FAK levels at 50 uM by Western blot analysis; type: cell-based
[10] = biological target: Vascular endothelial growth factor receptor 2 (Homo sapiens) (UniProt P35968); test: Inhibition of VEGFR2 in human BT474 cells assessed as downregulation of phosphorylated paxillin levels at 50 uM by Western blot analysis; type: cell-based
[11] = biological target: Vascular endothelial growth factor receptor 2 (Homo sapiens) (UniProt P35968); test: Inhibition of VEGFR2 in human BT474 cells assessed as downregulation of phosphorylated FAK levels at 20 uM by Western blot analysis; type: cell-based
[12] = biological target: Vascular endothelial growth factor receptor 2 (Homo sapiens) (UniProt P35968); test: Inhibition of VEGFR2 in human BT474 cells assessed as downregulation of phosphorylated paxillin levels at 20 uM by Western blot analysis; type: cell-based
[13] = biological target: Vascular endothelial growth factor receptor 2 (Homo sapiens) (UniProt P35968); test: Inhibition of VEGFR2 in human MDA-MB-231 cells assessed as downregulation of phosphorylated FAK levels at 20 uM by Western blot analysis; type: cell-based
[14] = biological target: Vascular endothelial growth factor receptor 2 (Homo sapiens) (UniProt P35968); test: Inhibition of VEGFR2 phosphorylation in human MDA-MB-231 cells at 50 uM by Western blot analysis; type: cell-based
[15] = biological target: Vascular endothelial growth factor receptor 2 (Homo sapiens) (UniProt P35968); test: Inhibition of VEGFR2 in human MDA-MB-231 cells assessed as reduction in PI3K phosphorylation at 20 to 50 uM by Western blot analysis; type: cell-based
[16] = biological target: Vascular endothelial growth factor receptor 2 (Homo sapiens) (UniProt P35968); test: Inhibition of VEGFR2 in human BT474 cells assessed as reduction in Akt phosphorylation at 20 to 50 uM by Western blot analysis; type: cell-based
[17] = biological target: Vascular endothelial growth factor receptor 2 (Homo sapiens) (UniProt P35968); test: Inhibition of VEGFR2 in human BT474 cells assessed as downregulation of phosphorylated FAK levels at 50 uM by Western blot analysis; type: cell-based
Serum [18] = test: Drug metabolism in athymic nude mouse serum assessed as monohydroxylated metabolite formation at 40 mg/kg, ip after 2 hrs by ES-MS analysis; type: ADME, organism-based; settings: in vivo
Serum [19] = test: Drug metabolism in athymic nude mouse serum assessed as dihydroxylated metabolite formation at 40 mg/kg, ip after 2 hrs by ES-MS analysis; type: ADME, organism-based; settings: in vivo
Mus musculus = test: Antiangiogenic activity in matrigel injected Swiss albino mouse assessed as reduction in hemoglobin content in matrigel plug at 2.5 mg/kg, ip every other day for 20 days by matrigel assay; type: functional; design: scale not given: the % may be the effect or the level left

| Structure (SMILES) | inhibition [1] [%] | Drug uptake (Serum [2]) | inhibition [3] [%] | inhibition [4] [%] | inhibition [5] | inhibition [6] | inhibition [7] [%] | inhibition [8] [%] | inhibition [9] [%] | inhibition [10] [%] | inhibition [11] [%] | inhibition [12] [%] | inhibition [13] [%] | inhibition [14] [%] | inhibition [15] | inhibition [16] | inhibition [17] [%] | Drug metabolism (Serum [18]) | Drug metabolism (Serum [19]) | Activity (Mus musculus) [%] |
| --- | --- | --- | --- | --- | --- | --- | --- | --- | --- | --- | --- | --- | --- | --- | --- | --- | --- | --- | --- | --- |
| C/C1=C\[C@H](O)C[C@](C)(O)/C=C/[C@H](C(C)C)CC/C(C)=C/CC1 | 96.1 | Active | 58.7 | 60.6 | inactive | inactive | 58.6 | 43.1 | 41.3 | 82.1 | 48.9 | 70.9 | 26 | 65.3 | inactive | inactive | 74.8 | Metabolite_Detected | Metabolite_Detected | – |
| CCN(CC)CCNC(=O)c1c(C)[nH]c(/C=C2\C(=O)Nc3ccc(F)cc32)c1C [SUNITINIB] | – | – | – | – | – | – | – | – | – | – | – | – | – | – | – | – | – | – | – | 80 |
